Point of comparison: `CCN1CCc2ccc(Nc3ncc(Cl)c(NCCCC(=O)NC)n3)cc2CC1`, melting point 135 °C. Against it:
- Nc1ccc(NC(=O)C=C2CC(C(=O)OCc3ccccc3)Nc3cc(Cl)cc(Cl)c32)cc1 (racemic) — lower, 80 °C
- COc1cc(CN2C(=O)CN(C)C2=O)cc(OC)c1-c1ccc(C[C@H](NC(=O)c2c(Cl)cccc2Cl)C(=O)O)cc1 — higher, 248 °C
- COc1cc(N)ccc1-c1cnn(C)c1 — lower, 129 to 131 °C
- CN1C(=O)C(C(=O)Nc2ccc(Oc3ncc(Cl)cc3Cl)cc2)C(=O)N(C)C1=O — higher, 234 to 235 °C
- CC(O)(C(=O)O)c1ccc(-c2ccccc2)c(F)c1 (stereo not given) — higher, 161 to 163 °C
- CCCc1c(OCCCCCCCC(=O)OC)ccc(C(C)=O)c1O — lower, 39 to 41 °C
- Fc1cc2c(Nc3ccc(OCc4cccc(Cl)c4)c(Cl)c3)ncnc2cn1 — higher, 196 to 198 °C
- CC(=O)COc1cc(C)c(Br)c(C)c1Cc1ccc(C(C)C)cc1 — lower, 93 to 94 °C
- O=[N+]([O-])c1ccc(C=[N+]([O-])c2cccc(CO)c2)o1 — higher, 187 to 188 °C
- Cc1cn(-c2cc(NC(=O)c3ccc(C)c(Nc4nccc(-c5cccnc5)n4)c3)cc(C(F)(F)F)c2)cn1 — higher, 235 to 236 °C
- COC1=C(OC)C(=O)C(CCCCCCCCCC(=O)N[C@H](CCC(=O)OCc2ccccc2)C(N)=O)=C(C)C1=O — lower, 83 to 85 °C
- O=Cc1nc2cnccc2s1 — lower, 96.5 to 98 °C
- COc1cc(OC)nc(NC(=O)NS(=O)(=O)c2cscc2C)n1 — higher, 175 to 178 °C
- CC1(C)C=C(C(O)CN)c2ccccc21 (stereo not given) — lower, 93 °C
- Cn1nc(-c2ccc(C(=O)N3CCN(C4CCCC4)CC3)cc2)ccc1=O — higher, 177 to 179 °C
- Cc1cc(N)cc2c1NC(=O)CC2C (stereo not given) — higher, 207 to 210 °C
- CCCc1nc(Cl)c(-c2ccc(C)cc2)c(Cl)n1 — lower, 91 to 93 °C
- COC(=O)c1nc(-c2ccc(Cl)cc2)c(F)c(N)c1I — lower, 114 to 115 °C
- O=C1NC(=O)C2(N1)c1ccccc1-c1ncccc12 (stereo not given) — higher, 311 to 312 °C
- CN(C)Cc1ccc2n1Cc1ccccc1N(C(=O)c1ccc(-c3ccccc3)cc1)C2 — lower, 85 to 87 °C
- CCN(CC)Cc1[nH]c(C)c(-c2ccnc(Nc3ccc(F)cc3)n2)c1C — lower, 71.9 to 74.2 °C
- CCOC(=O)c1cn(CC)c2c(F)c(C(=O)C=CN(C)C)c(F)cc2c1=O — higher, 175 to 177 °C
- CCCCCc1ccc(S(=O)(=O)n2c(CCC(=O)O)cc3cc(Cl)ccc32)cc1 — lower, 131 to 134 °C
- Nc1sc2c(c1C(=O)c1ccc(Br)cc1)CCN(C(=O)Nc1ccccc1)C2 — lower, 89 to 90 °C
- COC(=O)C[C@H](O)CC(=O)C=Cc1c(-c2ccc(F)cc2)c(-c2ccc(F)cc2)c(C(=O)Nc2ccc(S(N)(=O)=O)cc2)n1C(C)C — lower, 109 to 110 °C
- CCOC(=O)C(=O)Nc1cc(Cl)c(Cl)c(Cl)c1 — higher, 148 to 151 °C
- O=C(O)c1snc(-c2ccccc2)c1O — higher, 161 to 163 °C
- O=C(O)CCn1c(=O)c(=O)[nH]c2cc([N+](=O)[O-])ccc21 — higher, 148 to 156 °C
- COc1cc2ccc(C)cc2c(C)c1OC — lower, 68 to 69 °C
- COC(=O)c1nc(C2CC2)nc(N)c1Cl — higher, 147 to 148 °C
- CCS[C@@H]1c2ccn3c(C)c(C)nc3c2N[C@H](c2ccccc2)[C@H]1O — higher, 220 to 223 °C
- Clc1ccc(C2=Nc3cccnc3Nc3ccccc32)cc1 — higher, 203 to 204 °C
- CCCOc1ccc(-c2ccc(OCC(CN3C(=O)NC(C)(C)C3=O)N(O)C=O)cc2)cc1 (stereo not given) — higher, 158 to 160 °C
- O=C(CNc1ccc(S(=O)(=O)O)cc1)c1ccccc1 — higher, > 300 °C
- Cc1ccc(C(=O)Nc2ccccc2C(N)=O)cc1 — higher, 206 to 208 °C
- Cc1ccc(S(=O)(=O)N2[C@@H](CCC(=N)NO)CC[C@H]2c2ccc(F)cc2)cc1 (racemic) — lower, 134 °C
- O=C(Nc1cccnc1)N1CCN(c2cncc(-c3ccc(F)cc3F)n2)CC1 — higher, 155 to 156 °C
- COc1ccc(C(C#Cc2ccccc2)CNC(C)=O)cc1OC1CCCC1 (racemic) — lower, 114 to 117 °C
- Cn1c(COc2ccc(C=C3SC(=O)NC3=O)cc2)nc2cccnc21 — higher, 279 to 281 °C
- CSC[C@H](NC(C)=O)C(=O)NO — lower, 126 to 127 °C
- CC(C)S(=O)(=O)C(C#N)=C(Nc1cc(C(F)(F)F)cc(C(F)(F)F)c1)NC1CCCC1 — higher, 172 to 173 °C
- Cc1c(C#N)cc(C(C)(C)C)c(O)c1C(=O)Nc1ccc(Sc2ccc(Cl)cc2)cc1C(F)(F)F — higher, 193 to 195 °C
- COc1ccc(C2CCN(C(=O)Nc3ccc4cc(CN5C(C)(C)CCCC5(C)C)ccc4c3)CC2)cc1 — higher, 164 to 166 °C
- NC(=O)C(=O)NC(C(=O)O)c1ccccc1 (stereo not given) — higher, 193 °C
- Cn1c(C(F)(F)F)cc(=O)n(Cc2cc(Cl)cc(Cl)c2Cl)c1=O — lower, 128 to 130 °C
- CCCCCCc1ncc(/C=C(\Cc2cccs2)C(=O)O)n1Cc1ccccc1Cl — higher, 161 to 163 °C
- CNC(=O)c1ccccc1Nc1nc(Nc2ccc3c(c2)OCCNC3=O)ncc1Cl — higher, 293 to 295 °C
- CS(=O)(=O)c1nc2cnc3cccnc3c2n1Cc1ccccc1 — higher, 187 to 191 °C
- O=C(O)c1cc(C(F)(F)F)nn1-c1ncccc1Cl — higher, 175 to 176 °C

— a melting point compilation (Tetko et al.; mined from patent text by program, amines drawn as free bases though some values may be those of a salt)
